# Results from patent publication US20100152129A1 (priority 2008, published 2010).
# Tested on: Panc-1 cell line
# Assay: Gene expression profile using RTQ-PCR
# Assay type: cell-based
# Settings: Panc1, RTQ-PCR
# Description: The objective of the experiment was to evaluate the synergistic effect of drug combination (Gemcitabine with […]) as compared to individual use of the same. The synergistic effect of the compound or drug combination in the Panc-1 cell line was measured in terms of gene expression and expressed as fold changes as compared to the cell control with no drug treatment. Methodology: Cell lines treated with drugs (Gemcitabine, […] or both) were used for total RNA isolation using a commercial RNA extraction kit (Qiagen Corporation, Germany). […] This was followed by real time quantitative polymerase chain reaction (RTQ PCR) using gene specific primers and standard thermal program of initial denaturation at 95° C. for 5 mins and 40 cycles of 95° C. for 10 seconds, followed by […] for 30 seconds (Realplex PCR machine from Eppendorf, Germany). Quantitative measurement of products made during PCR cycles was normalized against a housekeeping gene (Actin) and used to measure the gene expression as fold changes as compared to respective control (FIG. 5).
SMILES,CDK2 gene expression vs control cells with no drug treatment [log 2 fold ratio],CDK4 gene expression vs control cells with no drug treatment [log 2 fold ratio],CDK6 gene expression vs control cells with no drug treatment [log 2 fold ratio],CDK8 gene expression vs control cells with no drug treatment [log 2 fold ratio],DDIT4 gene expression vs control cells with no drug treatment [log 2 fold ratio],RRM1 gene expression vs control cells with no drug treatment [log 2 fold ratio],RRM2 gene expression vs control cells with no drug treatment [log 2 fold ratio],p14 gene expression vs control cells with no drug treatment [log 2 fold ratio],p18 gene expression vs control cells with no drug treatment [log 2 fold ratio],p27 gene expression vs control cells with no drug treatment [log 2 fold ratio],DLG5 gene expression vs control cells with no drug treatment [log 2 fold ratio],E2F1 gene expression vs control cells with no drug treatment [log 2 fold ratio],MAPK1 gene expression vs control cells with no drug treatment [log 2 fold ratio],PDCD2 gene expression vs control cells with no drug treatment [log 2 fold ratio],POLB gene expression vs control cells with no drug treatment [log 2 fold ratio],PTK7 gene expression vs control cells with no drug treatment [log 2 fold ratio],PTN gene expression vs control cells with no drug treatment [log 2 fold ratio],RASA1 gene expression vs control cells with no drug treatment [log 2 fold ratio],REV3L gene expression vs control cells with no drug treatment [log 2 fold ratio],SSTR2 gene expression vs control cells with no drug treatment [log 2 fold ratio],other results
CN1CC[C@@H](c2c(O)cc(O)c3c(=O)cc(-c4ccc(C(F)(F)F)cc4Cl)oc23)[C@@H]1CO.Cl [drawing 12],0.96,0.73,1.48,0.20,−0.31,−0.24,0.04,−0.59,−0.12,−0.30,–,–,–,–,–,–,–,–,–,–,–
CN1CCC(c2c(O)cc(O)c3c(=O)cc(-c4ccccc4Cl)oc23)C(O)C1 (stereo not drawn) [drawing 14],0.74,0.49,1.31,−0.99,−4.21,0.03,0.38,−0.10,−1.14,−0.01,–,–,–,–,–,–,–,–,–,–,–
Nc1ccn([C@@H]2O[C@H](CO)[C@@H](O)C2(F)F)c(=O)n1 [drawing 10],0.50,−0.93,−0.53,0.86,1.01,0.25,–,−0.17,1.06,−0.16,–,–,–,–,–,–,–,–,–,–,–
CC[C@H](CO)Nc1nc(NCc2ccccc2)c2ncn(C(C)C)c2n1 [drawing 2],–,–,–,–,–,–,–,–,–,–,−0.71,0.03,−0.29,−0.05,−0.26,0.11,−0.28,−0.41,−0.27,−0.37,STAT4 gene expression vs control cells with no drug treatment: −1.66 log 2 fold ratio
CN1CCC(c2c(O)cc(O)c3c(=O)cc(-c4ccccc4Cl)oc23)C(O)C1 (stereo not drawn) [drawing 5],–,–,–,–,–,–,–,–,–,–,−1.19,−0.62,−2.31,0.50,0.34,0.16,−0.24,−1.10,−1.42,−2.98,STAT4 gene expression vs control cells with no drug treatment: −1.39 log 2 fold ratio
CN1CC[C@@H](c2c(O)cc(O)c3c(=O)cc(-c4ccccc4Cl)oc23)[C@@H]1CO.Cl,−0.21,−0.44,−0.23,0.11,−1.88,0.18,0.16,−0.50,−0.17,−0.60,–,–,–,–,–,–,–,–,–,–,–
Nc1ccn([C@@H]2O[C@H](CO)[C@@H](O)C2(F)F)c(=O)n1 [drawing 1],–,–,–,–,–,–,–,–,–,–,−0.53,0.98,−0.18,−1.27,−0.94,−0.53,0.68,−0.04,−0.28,−1.17,STAT4 gene expression vs control cells with no drug treatment: −0.54 log 2 fold ratio
CN1CC[C@@H](c2c(O)cc(O)c3c(=O)cc(-c4ccc(C(F)(F)F)cc4Cl)oc23)[C@@H]1CO.Cl [drawing 3],–,–,–,–,–,–,–,–,–,–,−1.01,−0.43,0.64,0.77,−0.05,0.30,0.40,0.10,−0.13,−0.69,STAT4 gene expression vs control cells with no drug treatment: −1.52 log 2 fold ratio
CC[C@H](CO)Nc1nc(NCc2ccccc2)c2ncn(C(C)C)c2n1 [drawing 11],0.29,−0.06,0.75,0.82,−0.84,0.11,0.63,−0.05,0.56,−0.04,–,–,–,–,–,–,–,–,–,–,–
